Like-named read-outs stand apart in the source and are kept apart here.

The target in one assay is T1, PKA catalytic domain (Homo sapiens, UniProt P17612).
T1 construct: using the PKA catalytic domain from Upstate Biotechnology (#14-440); purchased Upstate Biotechnology 14-440
Description: Measurement of PKA kinase inhibitory activity (IC50), 33P-ATP filter plate assay. In kind it is biochemical. The following applies: 1 nM enzyme, 40 μM ATP, 20 minutes; read-out: IC50, inhibition of PKA activity. As for the experimental part: A final concentration of 1 nM enzyme is used in a buffer that includes 20 mM MOPS pH 7.2, 40 μM ATP/γ^33P-ATP and […] substrate. Compounds are added in dimethylsulphoxide (DMSO) solution to a final DMSO concentration of 2.5%. The reaction is allowed to proceed for 20 minutes before addition of excess orthophosphoric acid to quench activity. Unincorporated γ^33P-ATP is then separated from phosphorylated proteins on a Millipore MAPH filter plate. The plates are washed, scintillant is added and the plates are then subjected to counting on a Packard Topcount.

The target of the next assay is T2, PKB-PIF fusion protein (Homo sapiens, UniProt P31751).
T2 construct: PIF (fusion partner); made in house
Description: Measurement of PKB kinase inhibitory activity (IC50), 33P-ATP phosphocellulose filter assay. In kind it is biochemical. As to the method:
The inhibition of protein kinase B (PKB) activity by compounds can be determined essentially as described by Andjelkovic et al. (Mol. Cell. Biol. 19, 5061-5072 (1999)) but using a fusion protein described as PKB-PIF and described in full by Yang et al (Nature Structural Biology 9, 940-944 (2002)). […] A final concentration of 0.6 nM enzyme is used in a buffer that includes 20 mM MOPS pH 7.2, 30 μM ATP/γ^33P-ATP and 25 μM substrate.
Compounds are added in DMSO solution to a final DMSO concentration of 2.5%. The reaction is allowed to proceed for 20 minutes before addition of excess orthophosphoric acid to quench activity. The reaction mixture is transferred to a phosphocellulose filter plate where the peptide binds and the unused ATP is washed away. After washing, scintillant is added and the incorporated activity measured by scintillation counting.
The % inhibition of the PKB activity is calculated and plotted in order to determine the concentration of test compound required to inhibit 50% of the PKB activity (IC50).

Setting [1] is: 0.6 nM enzyme, 30 μM ATP, 25 μM AKTide-2T substrate, 20 minutes, read-out: IC50, inhibition of PKB activity.

T2 sequence (P31751 with tags, fused parts or gaps limits assumed): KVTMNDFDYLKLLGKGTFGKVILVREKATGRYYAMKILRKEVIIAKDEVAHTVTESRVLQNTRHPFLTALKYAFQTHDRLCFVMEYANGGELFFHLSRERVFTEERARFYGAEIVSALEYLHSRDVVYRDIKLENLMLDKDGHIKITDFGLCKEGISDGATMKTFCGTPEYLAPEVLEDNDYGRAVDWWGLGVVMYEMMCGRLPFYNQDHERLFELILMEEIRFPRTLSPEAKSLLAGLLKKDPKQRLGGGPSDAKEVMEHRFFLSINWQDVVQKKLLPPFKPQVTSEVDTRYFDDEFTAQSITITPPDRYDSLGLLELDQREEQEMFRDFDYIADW

Regarding `CNC1CCN(c2ncnc3[nH]cnc23)CC1` [Example 1, Methyl-[1-(9H-purin-6-yl)-piperidin-4-yl]-amine], the IC50 at PKA catalytic domain and on PKB-PIF fusion protein (setting [1]) was less than 10 µM throughout. With `c1ccc(CNC2CCN(c3ncnc4[nH]cnc34)CC2)cc1` [Example 2, Benzyl-[1-(9H-purin-6-yl)-piperidin-4-yl]-amine], the IC50 at PKB-PIF fusion protein (setting [1]) is less than 10 µM. As for `NC1CCN(c2ncnc3[nH]c(=O)[nH]c23)CC1` [Example 4, 6-(4-Aminopiperidin-1-yl)-7,9-dihydropurin-8-one], the IC50 is less than 50 µM on PKA catalytic domain and less than 10 µM at PKB-PIF fusion protein (setting [1]).

In the case of `O=c1[nH]c2ncnc(N3CCC(O)(Cc4ccccc4)CC3)c2[nH]1` [Example 5, 6-(4-Benzyl-4-hydroxypiperidin-1-yl)-7,9-dihydropurin-8-one], the IC50 at PKA catalytic domain and on PKB-PIF fusion protein (setting [1]) was less than 50 µM each time. `O=c1[nH]c2ncnc(N3CCNCC3)c2[nH]1` [Example 6, 6-(Piperazin-1-yl)-7,9-dihydropurin-8-one]: the IC50 at PKA catalytic domain and on PKB-PIF fusion protein (setting [1]) was less than 10 µM throughout. Take `O=c1[nH]c2ncnc(N3CCN[C@H](COCc4ccccc4)C3)c2[nH]1` [Example 7, (3S)-6-(3-Benzyloxymethylpiperazin-1-yl)-7,9-dihydropurin-8-one]: the IC50 on PKA catalytic domain and at PKB-PIF fusion protein (setting [1]) was less than 50 µM each time.

On to `O=c1[nH]c2ncnc(N3CCC(NCCc4ccccc4)CC3)c2[nH]1` [Example 8, 6-(4-Phenethylaminopiperidin-1-yl)-7,9-dihydro-purin-8-one], for which the IC50 on PKA catalytic domain and at PKB-PIF fusion protein (setting [1]) was less than 10 µM throughout. As for `O=c1[nH]c2ncnc(N3CCC(NCc4ccccc4Cl)CC3)c2[nH]1` [Example 9, 6-[4-(2-Chlorobenzylamino)-piperidin-1-yl]-7,9-dihydro-purin-8-one], the IC50 on PKA catalytic domain and on PKB-PIF fusion protein (setting [1]) was less than 50 µM in each case.

Consider `O=c1[nH]c2ncnc(N3CCC(NCc4cccc(Cl)c4)CC3)c2[nH]1` [Example 10, 6-[4-(3-Chlorobenzylamino)-piperidin-1-yl]-7,9-dihydro-purin-8-one], for which the IC50 at PKA catalytic domain and on PKB-PIF fusion protein (setting [1]) was less than 10 µM each time. For the compound `NC1CCN(c2ncnc3[nH]ncc23)CC1` [Example 11, 1-(1H-Pyrazolo[3,4-d]pyrimidin-4-yl)-piperidin-4-ylamine], the IC50 at PKA catalytic domain and on PKB-PIF fusion protein (setting [1]) was less than 10 µM throughout. `NC1CCN(c2ncnc3[nH]ccc23)CC1` [Example 12, 1-(7H-Pyrrolo[2,3-d]pyrimidin-4-yl)-piperidin-4-ylamine]: the IC50 at PKA catalytic domain and on PKB-PIF fusion protein (setting [1]) was less than 10 µM throughout. As for `NC1CCN(c2ccnc3[nH]ccc23)CC1` [Example 13, 1-(1H-Pyrrolo[2,3-b]pyridin-4-yl)-piperidin-4-ylamine], the IC50 at PKA catalytic domain and at PKB-PIF fusion protein (setting [1]) was less than 10 µM throughout. `NCC1(c2ccc(Cl)cc2)CCN(c2ncnc3[nH]ccc23)CC1` [Example 14, C-[4-(4-Chloro-phenyl)-1-(7H-pyrrolo[2,3-d]pyrimidin-4-yl)-piperidin-4-yl]-methylamine]: the IC50 at PKA catalytic domain and at PKB-PIF fusion protein (setting [1]) was less than 10 µM throughout.

For the compound `NCC1(c2ccc(Cl)cc2)CCN(c2ncnc3[nH]cnc23)CC1` [Example 15, C-[4-(4-Chloro-phenyl)-1-(9H-purin-6-yl)-piperidin-4-yl]-methylamine], the IC50 on PKB-PIF fusion protein (setting [1]) is less than 10 µM. As to `NC1(Cc2ccccc2)CCN(c2ncnc3[nH]cnc23)CC1` [Example 16, 4-Benzyl-1-(9H-purin-6-yl)piperidin-4-ylamine], the IC50 on PKB-PIF fusion protein (setting [1]) was less than 10 µM. Take `NC1(Cc2ccc(Cl)cc2)CCN(c2ncnc3[nH]cnc23)CC1` [Example 18, 4-(4-Chlorobenzyl)-1-(9H-purin-6-yl)piperidin-4-yl amine]: the IC50 on PKA catalytic domain and at PKB-PIF fusion protein (setting [1]) was less than 10 µM in each case. As to `NCC1(c2ccc(Cl)cc2)CCN(c2ccnc3[nH]ccc23)CC1` [Example 21, C-[4-(4-Chlorophenyl)-1-(1H-pyrrolo[2,3-b]pyridin-4-yl)piperidin-4-yl]methylamine], the IC50 on PKB-PIF fusion protein (setting [1]) was less than 10 µM. With `CCn1c(=O)[nH]c2ncnc(N3CCC(CN)(c4ccc(Cl)cc4)CC3)c21` [Example 22, 6-[4-Aminomethyl-4-(4-chlorophenyl)piperidin-1-yl]-7-ethyl-7,9-dihydro-purin-8-one], at PKB-PIF fusion protein (setting [1]), the concentration for half-maximal inhibition (IC50) is less than 10 µM. On to `NCC1(Cc2ccc(Cl)cc2)CCN(c2ncnc3[nH]cnc23)CC1` [Example 23, C-[4-(4-Chlorobenzyl)-1-(9H-purin-6-yl)piperidin-4-yl]methylamine], for which, at PKB-PIF fusion protein (setting [1]), the IC50 was less than 10 µM. At PKB-PIF fusion protein, `N#CC1(c2ccc(Cl)cc2)CCN(c2ncnc3[nH]ccc23)CC1` [Example 24, 4-(4-Chlorophenyl)-1-(7H-pyrrolo[2,3-d]pyrimidin-4-yl)piperidine-4-carbonitrile] came in with an IC50 of less than 10 µM. Regarding `NCC1(c2cccc(Cl)c2)CCN(c2ncnc3[nH]cnc23)CC1` [Example 27, C-[4-(3-Chlorophenyl)-1-(9H-purin-6-yl)piperidin-4-yl]methylamine], on PKB-PIF fusion protein (setting [1]), the IC50 is less than 10 µM. For the compound `NCC1(c2ccc(Cl)c(Cl)c2)CCN(c2ncnc3[nH]cnc23)CC1` [Example 29, C-[4-(3,4-Dichlorophenyl)-1-(9H-purin-6-yl)piperidin-4-yl]methylamine], the IC50 on PKB-PIF fusion protein (setting [1]) is less than 10 µM. Consider `NCC1(c2ccc(OC(F)(F)F)cc2)CCN(c2ncnc3[nH]ccc23)CC1` [Example 30], for which the IC50 on PKB-PIF fusion protein (setting [1]) is less than 10 µM. Turning to `NCC1(c2ccc(C(F)(F)F)cc2)CCN(c2ncnc3[nH]cnc23)CC1` [Example 33, C-[1-(9H-Purin-6-yl)-4-(4-trifluoromethylphenyl)piperidin-4-yl]methylamine], the IC50 at PKB-PIF fusion protein (setting [1]) was less than 10 µM. On to `NCC1(c2cccc(C(F)(F)F)c2)CCN(c2ncnc3[nH]ccc23)CC1` [Example 34, C-[1-(7H-Pyrrolo[2,3-d]pyrimidin-4-yl)-4-(3-trifluoromethylphenyl)piperidin-4-yl]methylamine], for which the IC50 at PKB-PIF fusion protein (setting [1]) was less than 10 µM. On the same count and under the same terms, for `NCC1(c2cccc(C(F)(F)F)c2)CCN(c2ncnc3[nH]cnc23)CC1` [Example 35, C-[1-(9H-Purin-6-yl)-4-(3-trifluoromethylphenyl)piperidin-4-yl]methylamine] the value was less than 10 µM; for `NCC1(c2ccc(F)c(F)c2)CCN(c2ncnc3[nH]ccc23)CC1` [Example 36, C-[4-(3,4-Difluorophenyl)-1-(7H-pyrrolo[2,3-d]pyrimidin-4-yl)piperidin-4-yl]methylamine], less than 10 µM; for `NCC1(c2ccc(F)c(F)c2)CCN(c2ncnc3[nH]cnc23)CC1` [Example 37, C-[4-(3,4-Difluorophenyl)-1-(9H-purin-6-yl)piperidin-4-yl]methylamine], less than 10 µM.

Turning to `COc1ccc(C2(CN)CCN(c3ncnc4[nH]cnc34)CC2)cc1` [Example 39, C-[4-(4-Methoxyphenyl)-1-(9H-purin-6-yl)piperidin-4-yl]methylamine], the IC50 on PKB-PIF fusion protein (setting [1]) is less than 10 µM. For `NCC1(c2ccc(OCc3ccccc3)cc2)CCN(c2ncnc3[nH]cnc23)CC1` [Example 41, C-[4-(4-Benzyloxyphenyl)-1-(9H-purin-6-yl)piperidin-4-yl]methylamine], the IC50 on PKB-PIF fusion protein (setting [1]) was less than 10 µM. In the case of `CC(C)NCC1(c2ccc(Cl)cc2)CCN(c2ncnc3[nH]ccc23)CC1` [Example 43, [4-(4-Chlorophenyl)-1-(7H-pyrrolo[2,3-d]pyrimidin-4-yl)-piperidin-4-ylmethyl]-isopropylamine], the IC50 on PKB-PIF fusion protein (setting [1]) is less than 10 µM. With `NCC1(Cc2ccc(Cl)c(Cl)c2)CCN(c2ncnc3[nH]ccc23)CC1` [Example 45, C-[4-(3,4-Dichlorobenzyl)-1-(7H-pyrrolo[2,3-d]pyrimidin-4-yl)piperidin-4-yl]methylamine], the concentration for half-maximal inhibition (IC50) on PKB-PIF fusion protein (setting [1]) was less than 10 µM. Take `NCC1(Cc2ccc(Cl)c(Cl)c2)CCN(c2ncnc3[nH]cnc23)CC1` [Example 46, C-[4-(3,4-Dichlorobenzyl)-1-(9H-purin-6-yl)piperidin-4-yl]methylamine]: the IC50 at PKB-PIF fusion protein (setting [1]) is less than 10 µM. Regarding `NCC1(Cc2ccc(OC(F)(F)F)cc2)CCN(c2ncnc3[nH]ccc23)CC1` [Example 47, C-[1-(7H-Pyrrolo[2,3-d]pyrimidin-4-yl)-4-(4-trifluoromethoxybenzyl)piperidin-4-yl]methylamine], at PKB-PIF fusion protein (setting [1]), the IC50 was less than 10 µM.

On to `NCC1(Cc2ccc(OC(F)(F)F)cc2)CCN(c2ncnc3[nH]cnc23)CC1` [Example 48, C-[1-(9H-Purin-6-yl)-4-(4-trifluoromethoxybenzyl)piperidin-4-yl]methylamine], for which, on PKB-PIF fusion protein (setting [1]), the 50% inhibitory concentration (IC50) is less than 10 µM.

`NC1(Cc2ccc(Cl)c(Cl)c2)CCN(c2ncnc3[nH]cnc23)CC1` [Example 50, 4-(3,4-Dichlorobenzyl)-1-(9H-purin-6-yl)piperidin-4-yl amine]: the IC50 at PKB-PIF fusion protein (setting [1]) is less than 10 µM.

For `NC1(Cc2ccc(OC(F)(F)F)cc2)CCN(c2ncnc3[nH]cnc23)CC1` [Example 52, 1-(9H-Purin-6-yl)-4-(4-trifluoromethoxybenzyl)piperidin-4-ylamine], the IC50 on PKB-PIF fusion protein (setting [1]) was less than 10 µM.

Values taken from patent publication US8809336B2, “Ortho-condensed pyridine and pyrimidine derivatives (e.g., purines) as protein kinases inhibitors” (Astex Therapeutics Limited, priority 2004, dated 2014).
